Article PMC10714399, “Open Source Antibiotics: Simple Diarylimidazoles Are Potent against Methicillin-Resistant Staphylococcus aureus” (ACS Infectious Diseases, 2023)
In brackets after ≈: the same amount, converted by molar mass. Where two headings read alike, the source gives them in different places. One block for each compound: values may come before it.

Tests used:
[1] = tested on: Staphylococcus aureus NCTC 13373 (mecA-positive; methicillin-resistant); assay: In vitro antibacterial activity, MIC (UCL School of Pharmacy assay), MRSA; format: cell-based; details: for MIC: Staphylococcus aureus
How it was run: (§1)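 Broth microdilution MIC in isosensitest broth; inoculum from overnight tryptone soya agar culture suspended in PBS to A600 0.1 (~1 × 10^8 CFU/mL), then diluted 1:100. Compounds tested as 2-fold series from 32 to 0.03 μg/mL, DMSO at most 2%; vancomycin as quality control.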

[2] = tested on: S. aureus ATCC 25923 (methicillin-susceptible); assay: In vitro antibacterial activity, MIC (UCL), MSSA; format: cell-based, Staphylococcus aureus; details: Staphylococcus aureus
How it was run: as §1

[3] = tested on: Enterococcus faecalis ATCC 51299 (vanA-positive; vancomycin-resistant); assay: In vitro antibacterial activity, MIC (UCL), VRE; format: cell-based
How it was run: as §1

Aqueous solubility = format: physicochemical; details: for solubility: thermodynamic from solid
[4] = Human plasma protein binding (PPB); format: in vitro ADME; details: human, plasma
[5] = Kinetic solubility estimation using nephelometry (Monash); format: physicochemical; details: for solubility kinetic at 30 min: kinetic from dmso stock
Experimental: Compound in DMSO was spiked into either pH 6.5 phosphate buffer or 0.01 M HCl (approximately pH 2.0) with the final DMSO concentration being 1%. […]
b) Kinetic Solubility Estimation using Nephelometry (SolpH)
Compound in DMSO was spiked into either pH 6.5 phosphate buffer or 0.01 M HCl (approx pH 2.0) with the final
DMSO concentration being 1%. After 30 minutes had elapsed, samples were then analysed via Nephelometry to
determine a solubility range. See Bevan and Lloyd (2000) Anal Chem, 72:1781-1787. […]
In Vitro Intrinsic Clearance […]
(§2) Experimental results are tabulated on the following page(s).
(§3) (1 picture or pasted object on this page, not shown here)

[6] = In vitro metabolic stability, human liver microsomes (Monash); format: in vitro ADME
Experimental: (§4) The metabolic stability assay was performed by incubating each test compound with a suspension of liver microsomes (0.4 mg/mL protein, 1 μM substrate, 37 °C). Microsomes were purchased from XenoTech. The metabolic reaction was initiated by the addition of an NADPH-regenerating system and quenched at various time points over a 60 min incubation by the addition of acetonitrile containing metolazone as an internal standard. Control samples (containing no NADPH) were included (quenched at 2, 30, and 60 min) to monitor for potential degradation in the absence of cofactor. […]
(§5) d) In Vitro Metabolic Stability
(§6) The metabolic stability assay was performed by incubating each test compound with a suspension of liver
(§7) microsomes (0.4 mg/mL, 37°C). The metabolic reaction was initiated by the addition of an NADPH-regenerating
(§8) system and quenched at various time points over a 60 minute incubation by the addition of acetonitrile containing
(§9) metolazone as internal standard. Control samples (containing no NADPH) were included (quenched at 2, 30 and 60
(§10) minutes) to monitor for potential degradation in the absence of cofactor.
(§11) The human liver microsomes used in this experiment were supplied by XenoTech, lot # 1710084.The rat liver
(§12) microsomes used in this experiment were supplied by XenoTech, lot # 1610290. Microsomal incubations were
(§13) performed at a substrate concentration of 1 µM.
(§14) Data analysis and interpretation:
(§15) Substrate depletion as a function of time was analysed as described by Obach (1999) Drug Metab. Dispos., 27:1350-
(§16) 1359. Intrinsic clearance (CLint) values were classified at the limits of low and high clearance bands based on a
(§17) rearrangement of the well stirred model of hepatic elimination. It should be noted that the potential impact of
(§18) compound binding (either in microsomes or in blood) on the relationship between in vitro intrinsic clearance and
(§19) hepatic clearance in vivo has not been accounted for in these studies.
(§20) In Vitro Intrinsic Clearance
(§21) Species (µL/min/mg protein)
(§22) Low Clearance High Clearance
as §2, §3

[7] = In vitro metabolic stability, rat liver microsomes (Monash); format: in vitro ADME
Experimental: as §4, §5, §6, §7, §8, §9, §10, §11, §12, §13, §14, §15, §16, §17, §18, §19, §20, §21, §22, §2, §3

[8] = human plasma, NEU, read-out: Human PPB (NEU) (converted)
[9] = 0.01 M HCl, simulated gastric fluid, pH 2.0, read-out: Sol (pH 2.0) (Monash)
[10] = pH 6.5 phosphate buffer, pH 6.5, aqueous buffer, read-out: Sol (pH 6.5) (Monash)
[11] = NADPH, read-out: CLint, in vitro

- MIC ([1]; UCL, read-out: MRSA MIC (UCL)): 4 µg/mL (≈ 12.6 µM)
- MIC ([2]; read-out: MSSA MIC (UCL)): 4 µg/mL (≈ 12.6 µM)
- MIC ([3]; read-out: VRE MIC (UCL)): 8 µg/mL (≈ 25.2 µM)
- Aqueous Solubility (NEU) (Aqueous solubility; NEU): 3 µM
- fraction unbound [4, 8]: 0.023
- solubility kinetic at 30 min [5, 9]: 50 to 100 µg/mL (≈ 158 to 315 µM)
- solubility kinetic at 30 min [5, 10]: 12.5 to 25 µg/mL (≈ 39.4 to 78.8 µM)
- HLM Clint (Monash) ([6]; Monash): 72 µL/min/mg
- HLM t1/2 (Monash) ([6]; Monash): 24 min
- RLM Clint (Monash) ([7]; Monash): 503 µL/min/mg
- RLM t1/2 (Monash) ([7]; Monash): 3 min
Compound: c1ccc(-c2nc3n(c2-c2ccc4sccc4c2)CCC3)nc1 [OSA_000822]

- MIC ([1]; 16 h, read-out: MRSA MIC): 4 µg/mL (≈ 13.3 µM)
- MIC ([1]; UCL, read-out: MRSA MIC (UCL)): 2 µg/mL (≈ 6.64 µM)
- MIC ([1]; read-out: MRSA MIC): 2 µg/mL (≈ 6.64 µM)
- MIC ([2]; read-out: MSSA MIC (UCL)): 2 µg/mL (≈ 6.64 µM)
- MIC ([3]; read-out: VRE MIC): 2 µg/mL (≈ 6.64 µM)
- solubility (Aqueous solubility; NEU, read-out: Aqueous Solubility (NEU)): 117 µM (≈ 35.3 µg/mL)
- fraction unbound [4, 8]: 0.028
- solubility kinetic at 30 min [5, 9]: > 100 µg/mL
- solubility kinetic at 30 min [5, 10]: 25 to 50 µg/mL (≈ 83 to 166 µM)
- microsomal CLint at 1 µM ([6]; Monash, read-out: HLM Clint (Monash)): 51 µL/min/mg
- half-life at 1 µM ([6]; Monash, read-out: HLM t1/2 (Monash)): 34 min
- microsomal CLint at 1 µM ([7]; Monash, read-out: RLM Clint (Monash)): 72 µL/min/mg
- half-life at 1 µM ([7]; Monash, read-out: RLM t1/2 (Monash)): 24 min
Compound: c1ccc(-c2nc3n(c2-c2ccc4occc4c2)CCC3)nc1 [compound 821]

- MRSA MIC [1]: 4 µg/mL
- MIC ([1]; 16 h, read-out: MRSA MIC): 2 µg/mL (≈ 6.3 µM)
- MIC ([1]; read-out: MRSA MIC): 2 µg/mL (≈ 6.3 µM)
- MIC ([2]; read-out: MSSA MIC): 4 µg/mL (≈ 12.6 µM)
- MIC ([3]; read-out: VRE MIC): 8 µg/mL (≈ 25.2 µM)
- solubility (Aqueous solubility; read-out: Aqueous Solubility): 3 µM (≈ 0.952 µg/mL)
- fraction unbound ([4]; read-out: Human PPB (converted)): 0.023
- Sol 2.0 ([5]; 0.01 M HCl, approx pH 2.0): 50 to 100 µg/mL
- Sol 6.5 ([5]; pH 6.5 phosphate buffer): 12.5 to 25 µg/mL
- microsomal CLint at 1 µM [6, 11]: 72 µL/min/mg
- half-life at 1 µM ([6]; NADPH, read-out: T1/2): 24 min
- microsomal CLint at 1 µM [7, 11]: 503 µL/min/mg
- half-life at 1 µM ([7]; NADPH, read-out: T1/2): 3 min
Compound: c1ccc(-c2nc3n(c2-c2ccc4sccc4c2)CCC3)nc1 [compound 822]
- activity against MRSA, in words [1]: MRSA-active
